These are literature values, as cited in patent US20030073826A1 (priority 2001, published 2003).

Each structure is given as a SMILES string.

The data set deals with bacteria. Conditions: U.S. Pat. No. 3,496,163, Example 2.

With `CCC[C@@H]1C[C@@H](C(=O)NC(C(C)Cl)C2OC(SC)C(O)C(O)C2O)N(C)C1` (stereo partly shown) [clindamycin free base], the “antibacterial spectrum compared with the hydrochloride salt of clindamycin” value was “same scope and magnitude”.
